Tested on: ovalbumin-sensitized guinea pigs
Test: Guinea pig allergic rhinitis model: intranasal pressure after nasal ovalbumin challenge
Type: in vivo
Conditions: 60 minutes prior to ovalbumin 1% challenge, AUC 0-30 min
Experimental: Male Hartley guinea pigs (250-500 g) purchased from Charles River (St-Constant, Qc, Canada) were used. They were housed in a temperature and humidity controlled environment, in groups of four or five with food and water available ad libitum. Experimental procedures were approved by the Animal Care Committee at Merck Frosst Centre for Therapeutic Research, in accordance with the guidelines of the Canadian Council on Animal Care.
Sensitization: The animals were injected intraperitoneally with 0.5 ml of an ovalbumin solution (100 μg/ml) containing 100 mg/ml aluminum hydroxide in 0.9% saline. […]
Following the surgical preparation, gallamine (2 mg/kg, i.v.) was administered to suppress spontaneous breathing. […] The changes in the intranasal pressure were monitored through a pressure transducer (Validyne DP-45, membrane 6-26, Validyne Corp., Northridge, Calif.) connected to a side arm of the nasal cannula. Values were recorded every 5 seconds using a data acquisition system (Modular Instruments, Malvern, Pa.). […]
The effects of test compounds were evaluated on the increased intranasal pressure following a nasal challenge with an aerosol of ovalbumin 1% for 3 minutes. […] The changes in intranasal pressure were recorded for the 30 minutes following the nasal challenge, using the peak response. […]

Structure (SMILES)	effect on the increase in intranasal pressure induced by ovalbumin aerosol (mepyramine 5 mg/kg i.p. alone)	effect on the increase in intranasal pressure induced by ovalbumin aerosol (Compound I 1 mg/kg i.p. alone)
COc1ccc(CN(CCN(C)C)c2ccccn2)cc1 [mepyramine]	no significant effect	
C[S@+]([O-])c1cccc2c3c(n(Cc4ccc(Cl)cc4)c12)[C@@H](CC(=O)O)CCC3 [Compound I, 2-[(1R)-9-(4-chlorobenzyl)-8-((S)-methylsulfinyl)-2,3,4,9-tetrahydro-1H-carbazol-1-yl]acetic acid]		no significant effect

From patent US20010051624A1, “Method and compositions for the treatment of allergic conditions using PGD2 receptor antagonists” (priority 2000, published 2001)
